Like-named read-outs stand apart in the source and are kept apart here.
Assays:
[1] = system: forty-four human cancer cell lines; test: Cell proliferation assay (ATPlite, 72 hours) in the 44 cell line Oncolines panel; type: cell-based; conditions: Homo sapiens
[2] = target: panel of more than 300 wild-type and mutant kinases (313 kinase panel) (Homo sapiens, UniProt Q9HC98); test: Kinase profiling in a biochemical assay panel (mobility shift assays and ELISA), %-inhibition at 1 μM; selectivity entropy; conditions: kinase NEK6; 1 μM
[3] = target: T1, panel of more than 300 wild-type and mutant kinases (313 kinase panel) (Homo sapiens, UniProt Q9UL54); test: as above; conditions: kinase TAOK2; 1 μM
T1 sequence (Q9UL54 1-1235): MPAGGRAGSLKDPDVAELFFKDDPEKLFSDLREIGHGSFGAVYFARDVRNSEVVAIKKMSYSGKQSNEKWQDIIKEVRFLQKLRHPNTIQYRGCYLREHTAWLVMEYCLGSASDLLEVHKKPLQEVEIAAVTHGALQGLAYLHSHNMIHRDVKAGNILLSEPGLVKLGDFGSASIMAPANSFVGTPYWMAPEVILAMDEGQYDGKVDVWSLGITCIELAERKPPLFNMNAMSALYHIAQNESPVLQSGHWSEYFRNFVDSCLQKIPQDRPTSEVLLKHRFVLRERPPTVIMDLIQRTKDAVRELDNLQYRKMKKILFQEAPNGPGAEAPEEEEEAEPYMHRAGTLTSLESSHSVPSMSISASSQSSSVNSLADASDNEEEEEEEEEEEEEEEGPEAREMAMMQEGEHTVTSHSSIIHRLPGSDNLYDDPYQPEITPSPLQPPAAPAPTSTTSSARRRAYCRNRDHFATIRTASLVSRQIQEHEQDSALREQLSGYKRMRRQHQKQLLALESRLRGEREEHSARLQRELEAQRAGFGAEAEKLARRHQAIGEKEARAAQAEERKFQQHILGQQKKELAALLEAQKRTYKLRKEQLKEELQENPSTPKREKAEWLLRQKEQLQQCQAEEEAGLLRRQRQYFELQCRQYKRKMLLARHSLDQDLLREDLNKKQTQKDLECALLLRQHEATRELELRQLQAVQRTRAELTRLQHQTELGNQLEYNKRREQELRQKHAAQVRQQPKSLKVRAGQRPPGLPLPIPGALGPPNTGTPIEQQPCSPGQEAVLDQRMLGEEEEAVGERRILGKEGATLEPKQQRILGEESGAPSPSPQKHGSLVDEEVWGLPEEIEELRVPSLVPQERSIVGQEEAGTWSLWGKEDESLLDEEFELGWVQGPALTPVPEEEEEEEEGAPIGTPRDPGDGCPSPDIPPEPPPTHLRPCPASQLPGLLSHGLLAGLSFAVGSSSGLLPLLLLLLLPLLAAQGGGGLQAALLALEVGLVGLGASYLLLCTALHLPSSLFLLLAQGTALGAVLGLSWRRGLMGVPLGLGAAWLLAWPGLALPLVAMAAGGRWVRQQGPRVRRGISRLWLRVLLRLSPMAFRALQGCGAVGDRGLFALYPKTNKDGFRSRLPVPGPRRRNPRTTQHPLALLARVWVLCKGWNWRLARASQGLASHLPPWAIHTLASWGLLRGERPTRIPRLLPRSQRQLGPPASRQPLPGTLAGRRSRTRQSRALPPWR

[4] = target: panel of more than 300 wild-type and mutant kinases (313 kinase panel) (Homo sapiens, UniProt P10721, T670I); test: as above; conditions: kinase KIT(T670I); compound at 1 μM
panel of more than 300 wild-type and mutant kinases (313 kinase panel) (Homo sapiens, UniProt P10721, T670I), sequence (P10721 26-976 T670I): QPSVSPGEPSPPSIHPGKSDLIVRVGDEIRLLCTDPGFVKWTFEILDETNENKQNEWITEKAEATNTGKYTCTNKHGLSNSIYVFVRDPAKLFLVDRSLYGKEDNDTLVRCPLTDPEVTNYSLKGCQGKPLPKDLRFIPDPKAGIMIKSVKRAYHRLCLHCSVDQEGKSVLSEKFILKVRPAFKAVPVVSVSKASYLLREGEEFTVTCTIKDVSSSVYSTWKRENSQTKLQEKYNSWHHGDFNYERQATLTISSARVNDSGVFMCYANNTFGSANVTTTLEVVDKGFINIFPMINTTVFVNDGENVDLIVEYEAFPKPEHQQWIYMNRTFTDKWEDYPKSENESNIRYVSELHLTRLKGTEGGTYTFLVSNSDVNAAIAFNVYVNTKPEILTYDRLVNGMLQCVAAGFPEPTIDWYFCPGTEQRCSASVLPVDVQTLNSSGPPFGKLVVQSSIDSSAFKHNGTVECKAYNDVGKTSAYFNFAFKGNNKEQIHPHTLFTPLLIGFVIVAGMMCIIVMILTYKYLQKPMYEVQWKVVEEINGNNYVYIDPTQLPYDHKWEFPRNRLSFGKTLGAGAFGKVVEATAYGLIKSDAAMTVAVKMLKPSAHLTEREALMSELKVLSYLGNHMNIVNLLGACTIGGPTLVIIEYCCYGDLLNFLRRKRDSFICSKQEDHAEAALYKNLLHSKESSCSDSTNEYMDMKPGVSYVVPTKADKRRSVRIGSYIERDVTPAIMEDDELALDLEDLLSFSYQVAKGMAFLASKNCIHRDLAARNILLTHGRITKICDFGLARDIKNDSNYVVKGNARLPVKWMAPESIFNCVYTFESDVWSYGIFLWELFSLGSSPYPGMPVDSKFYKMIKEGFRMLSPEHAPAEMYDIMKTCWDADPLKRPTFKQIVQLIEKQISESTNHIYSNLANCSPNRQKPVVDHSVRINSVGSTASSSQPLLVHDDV

[5] = target: panel of more than 300 wild-type and mutant kinases (313 kinase panel) (Homo sapiens, UniProt Q04912); test: as above; conditions: kinase RON; 1 μM
[6] = target: panel of more than 300 wild-type and mutant kinases (313 kinase panel) (Homo sapiens, UniProt P04049); test: as above; conditions: kinase RAF1; 1 μM
panel of more than 300 wild-type and mutant kinases (313 kinase panel) (Homo sapiens, UniProt P04049), sequence (P04049 whole entry, change not shown): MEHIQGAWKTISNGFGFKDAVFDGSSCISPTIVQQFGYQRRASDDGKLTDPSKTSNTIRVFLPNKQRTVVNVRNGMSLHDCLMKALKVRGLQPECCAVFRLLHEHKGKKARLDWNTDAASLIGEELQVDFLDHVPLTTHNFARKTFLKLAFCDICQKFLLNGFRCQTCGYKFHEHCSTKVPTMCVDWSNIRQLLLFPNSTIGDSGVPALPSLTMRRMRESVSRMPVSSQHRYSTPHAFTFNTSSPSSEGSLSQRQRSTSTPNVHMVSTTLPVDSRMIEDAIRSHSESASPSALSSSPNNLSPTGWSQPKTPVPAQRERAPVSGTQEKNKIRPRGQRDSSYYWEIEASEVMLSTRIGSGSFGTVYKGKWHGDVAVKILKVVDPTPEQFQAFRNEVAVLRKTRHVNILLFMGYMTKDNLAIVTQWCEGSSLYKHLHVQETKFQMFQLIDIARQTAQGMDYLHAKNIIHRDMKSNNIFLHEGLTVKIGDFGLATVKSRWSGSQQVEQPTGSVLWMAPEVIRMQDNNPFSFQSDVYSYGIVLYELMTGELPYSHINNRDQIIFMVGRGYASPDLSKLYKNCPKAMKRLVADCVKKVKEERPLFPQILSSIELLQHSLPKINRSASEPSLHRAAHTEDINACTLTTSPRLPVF

[7] = target: panel of more than 300 wild-type and mutant kinases (313 kinase panel) (Homo sapiens, UniProt Q8N4C8); test: as above; conditions: kinase MINK; 1 μM
panel of more than 300 wild-type and mutant kinases (313 kinase panel) (Homo sapiens, UniProt Q8N4C8), sequence (Q8N4C8 whole entry, change not shown): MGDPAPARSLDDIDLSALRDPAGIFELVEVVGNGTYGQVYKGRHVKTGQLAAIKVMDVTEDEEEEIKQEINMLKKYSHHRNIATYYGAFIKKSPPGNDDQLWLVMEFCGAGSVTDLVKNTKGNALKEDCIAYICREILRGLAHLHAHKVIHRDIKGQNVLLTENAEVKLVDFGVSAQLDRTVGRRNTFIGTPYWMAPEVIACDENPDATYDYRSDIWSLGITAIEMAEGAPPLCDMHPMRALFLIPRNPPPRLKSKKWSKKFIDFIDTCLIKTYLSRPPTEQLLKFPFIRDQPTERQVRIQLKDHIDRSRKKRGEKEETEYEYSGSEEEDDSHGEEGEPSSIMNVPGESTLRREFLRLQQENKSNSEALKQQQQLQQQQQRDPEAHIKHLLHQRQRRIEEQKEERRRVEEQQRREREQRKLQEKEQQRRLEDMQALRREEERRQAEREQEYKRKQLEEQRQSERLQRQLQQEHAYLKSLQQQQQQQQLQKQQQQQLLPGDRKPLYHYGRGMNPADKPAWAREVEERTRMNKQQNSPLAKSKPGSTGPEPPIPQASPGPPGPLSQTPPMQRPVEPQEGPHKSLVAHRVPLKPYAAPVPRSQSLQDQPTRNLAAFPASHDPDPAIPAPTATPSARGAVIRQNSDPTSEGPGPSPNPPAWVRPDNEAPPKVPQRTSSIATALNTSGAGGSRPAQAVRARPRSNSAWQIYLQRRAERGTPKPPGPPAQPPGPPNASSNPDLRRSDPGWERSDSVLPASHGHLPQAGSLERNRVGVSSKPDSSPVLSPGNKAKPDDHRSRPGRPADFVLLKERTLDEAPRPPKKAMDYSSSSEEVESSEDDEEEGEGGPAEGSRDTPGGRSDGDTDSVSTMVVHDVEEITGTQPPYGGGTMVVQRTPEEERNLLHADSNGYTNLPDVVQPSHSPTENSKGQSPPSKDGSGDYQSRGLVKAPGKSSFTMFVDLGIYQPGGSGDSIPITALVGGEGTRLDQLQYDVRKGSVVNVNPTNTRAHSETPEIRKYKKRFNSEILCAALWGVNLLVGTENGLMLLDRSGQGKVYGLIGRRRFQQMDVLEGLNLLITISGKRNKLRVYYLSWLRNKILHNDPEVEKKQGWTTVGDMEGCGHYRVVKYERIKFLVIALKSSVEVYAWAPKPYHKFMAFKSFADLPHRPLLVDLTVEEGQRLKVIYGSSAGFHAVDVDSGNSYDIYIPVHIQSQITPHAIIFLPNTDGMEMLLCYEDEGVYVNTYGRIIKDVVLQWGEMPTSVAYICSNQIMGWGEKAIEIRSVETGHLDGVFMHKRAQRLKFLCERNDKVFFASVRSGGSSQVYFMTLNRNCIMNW

Work on `CC(C)(C)c1nc(-c2cccc(NS(=O)(=O)c3c(F)cccc3F)c2F)c(-c2ccnc(N)n2)s1` [dabrafenib] yielded an IC50 ([1]; A 172, read-out: cell panel IC50, A-172) of 3.5 µM, an IC50 ([1]; A204, cell line A-204, read-out: cell panel IC50, A-204) of 4.69 µM and an IC50 ([1]; A498, read-out: cell panel IC50, A-498) of 2.28 µM. It also gave an IC50 ([1]; A549, read-out: cell panel IC50, A-549) of 4.12 µM, an IC50 ([1]; A-375, cell line A375, read-out: cell panel IC50, A375) of 0.026 µM and an IC50 ([1]; A-427, read-out: cell panel IC50, A-427) of 3.45 µM. For the same compound, the IC50 ([1]; AU565, read-out: cell panel IC50, AU-565) was 5.92 µM, the IC50 ([1]; BT-549, read-out: cell panel IC50, BT-549) was 5.73 µM and the IC50 ([1]; HCT-116, read-out: cell panel IC50, HCT-116) was 0.85 µM. For the same compound, the IC50 ([1]; K562, read-out: cell panel IC50, K-562) was 13.5 µM, the IC50 ([1]; LS174T, read-out: cell panel IC50, LS 174T) was over 31.6 µM and the IC50 ([1]; SHP77, cell line SHP-77, read-out: cell panel IC50, SHP-77) was 28.9 µM. It also gave an IC50 ([1]; SW-620, cell line SW620, read-out: cell panel IC50, SW620) of 2.47 µM, an IC50 ([1]; U2OS, cell line U-2 OS, read-out: cell panel IC50, U-2 OS) of over 31.6 µM and an IC50 ([1]; cell line J82, read-out: cell panel IC50, J82) of over 31.6 µM. For the same compound, the IC50 ([1]; cell line PA-1, read-out: cell panel IC50, PA-1) was 2.11 µM, the IC50 ([1]; cell line SJCRH30, read-out: cell panel IC50, SJCRH30) was over 31.6 µM and the IC50 ([1]; cell line SR, read-out: cell panel IC50, SR) was 2.12 µM. It also gave an IC50 ([1]; U-87 MG cell line, ATPlite, 72 hours, read-out: IC50 in cell proliferation assay (table S5 cellpanel data)) of over 31.6 µM, an IC50 ([1]; cell line 769-P, read-out: cell panel IC50, 769-P) of 10.9 µM and an IC50 ([1]; cell line 786-0, read-out: cell panel IC50, 786-0) of 3.3 µM. It also gave an IC50 ([1]; cell line ACHN, read-out: cell panel IC50, ACHN) of 1.15 µM, an IC50 ([1]; cell line AN3 CA, read-out: cell panel IC50, AN3 CA) of over 31.6 µM and an IC50 ([1]; cell line BT-20, read-out: cell panel IC50, BT-20) of over 31.6 µM. For the same compound, the IC50 ([1]; cell line BxPC-3, read-out: cell panel IC50, BxPC-3) was 2.68 µM, the IC50 ([1]; cell line C-33 A, read-out: cell panel IC50, C-33 A) was 3.31 µM and the IC50 ([1]; cell line CAL 27, read-out: cell panel IC50, CAL 27) was 30.8 µM. It also gave an IC50 ([1]; cell line CCRF-CEM, read-out: cell panel IC50, CCRF-CEM) of over 31.6 µM, an IC50 ([1]; cell line DLD-1, read-out: cell panel IC50, DLD-1) of 3.92 µM and an IC50 ([1]; cell line FaDu, read-out: cell panel IC50, FaDu) of 4.38 µM. It also gave an IC50 ([1]; cell line HCT-15, read-out: cell panel IC50, HCT-15) of 3.33 µM, an IC50 ([1]; cell line Hs 578T, read-out: cell panel IC50, Hs 578T) of 11.5 µM and an IC50 ([1]; cell line Jurkat E6.1, read-out: cell panel IC50, Jurkat E6.1) of 3.12 µM. The IC50 ([1]; cell line LoVo, read-out: cell panel IC50, LoVo) was 1.86 µM, the IC50 ([1]; cell line MG-63, read-out: cell panel IC50, MG-63) was over 31.6 µM and the IC50 ([1]; cell line MOLT-4, read-out: cell panel IC50, MOLT-4) was 29.1 µM. The IC50 ([1]; cell line MeWo, read-out: cell panel IC50, MeWo) was 6.49 µM, the IC50 ([1]; cell line NCI-H82, read-out: cell panel IC50, NCI-H82) was 2.54 µM and the IC50 ([1]; cell line NCI-H460, read-out: cell panel IC50, NCI-H460) was 2.98 µM. The IC50 ([1]; cell line OVCAR-3, read-out: cell panel IC50, OVCAR-3) was 5.26 µM, the IC50 ([1]; cell line RPMI-7951, read-out: cell panel IC50, RPMI-7951) was 0.024 µM and the IC50 ([1]; cell line SK-N-AS, read-out: cell panel IC50, SK-N-AS) was 3.55 µM. The IC50 ([1]; cell line SW48, read-out: cell panel IC50, SW48) was 10.6 µM, the IC50 ([1]; cell line SW480, read-out: cell panel IC50, SW480) was 16.6 µM and the “%-inhibition of NEK6” value [2] was -3%. The “%-inhibition of TAOK2” value [3] was 34%, the “%-inhibition of KIT(T670I)” value [4] was 1.7% and the “%-inhibition of RON” value [5] was 37%. For the same compound, the “%-inhibition of RAF1” value [6] was 99% and the “%-inhibition of MINK” value [7] was -0.772%.

Reference: publication PMC3961306, “Comparison of the Cancer Gene Targeting and Biochemical Selectivities of All Targeted Kinase Inhibitors Approved for Clinical Use” (PLoS ONE, 2014)
